Reference: PubChem BioAssay (NCI)
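Grown in 96-well plates, cells were treated for 48 hours with each compound at five concentrations. Insufficient inhibition: endpoint recorded as highest concentration tested. TGI denotes the concentration required for complete inhibition of growth.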

Key:
Assay in all cases: growth of human tumour cells (NCI), 48 h
[1] = system: 786-0 renal
[2] = system: A498 renal
[3] = system: A549 NSCLC
[4] = system: ACHN renal
[5] = system: CAKI-1 renal
[6] = system: CCRF-CEM leukemia
[7] = system: DU-145 prostate
[8] = system: EKVX NSCLC
[9] = system: HCC-2998 colon
[10] = system: HCT-116 colon
[11] = system: HCT-15 colon
[12] = system: HOP-62 NSCLC
[13] = system: HOP-92 NSCLC
[14] = system: HS 578T breast
[15] = system: K-562 leukemia
[16] = system: KM12 colon
[17] = system: LOX IMVI melanoma
[18] = system: M14 melanoma
[19] = system: MCF7 breast
[20] = system: MDA-MB-231 breast
[21] = system: MDA-MB-435
[22] = system: MDA-N
[23] = system: NCI-H226 lung
[24] = system: NCI/ADR-RES ovarian
[25] = system: OVCAR-3 ovarian
[26] = system: OVCAR-4 ovarian
[27] = system: OVCAR-5 ovarian
[28] = system: PC-3 prostate
[29] = system: RXF 393 renal
[30] = system: SF-268 CNS
[31] = system: SF-295 CNS
[32] = system: SF-539 CNS
[33] = system: SK-MEL-2 melanoma
[34] = system: SK-MEL-28 melanoma
[35] = system: SK-MEL-5 melanoma
[36] = system: SK-OV-3 ovarian
[37] = system: SN12C renal
[38] = system: SNB-19 CNS
[39] = system: SNB-75 CNS
[40] = system: SW-620 colon
[41] = system: T-47D breast
[42] = system: TK-10 renal
[43] = system: U251 CNS
[44] = system: UACC-257 melanoma
[45] = system: UACC-62 melanoma
[46] = system: UO-31 renal
[47] = system: BT-549 breast
[48] = system: COLO 205 colon
[49] = system: HL-60(TB) leukemia
[50] = system: HT29 colon
[51] = system: IGROV1 ovarian
[52] = system: MALME-3M melanoma
[53] = system: MOLT-4 leukemia
[54] = system: NCI-H23 lung
[55] = system: NCI-H460 lung
[56] = system: OVCAR-8 ovarian
[57] = system: RPMI-8226 leukemia
[58] = system: SR leukemia
[59] = system: NCI-H522 lung

`C[C@H](O)C1CC(Cn2nnc3c(N)ncnc32)C1(C)C` (stereo not given in full) showed a TGI [1] greater than 100 µM, a TGI [2] greater than 100 µM and a TGI [3] greater than 100 µM. The TGI [4] was greater than 100 µM, the TGI [5] was greater than 100 µM and the TGI [6] was greater than 100 µM. It also gave a TGI [7] greater than 100 µM, a TGI [8] greater than 100 µM and a TGI [9] greater than 100 µM. The TGI [10] was greater than 100 µM, the TGI [11] was greater than 100 µM and the TGI [12] was greater than 100 µM. The TGI [13] was greater than 100 µM, the TGI [14] was greater than 100 µM and the TGI [15] was 0.0411 µM. The TGI [16] was greater than 100 µM, the TGI [17] was greater than 100 µM and the TGI [18] was greater than 100 µM. It also gave a TGI [19] greater than 100 µM, a TGI [20] greater than 100 µM and a TGI [21] greater than 100 µM. For the same compound, the TGI [22] was greater than 100 µM, the TGI [23] was greater than 100 µM and the TGI [24] was greater than 100 µM. For the same compound, the TGI [25] was greater than 100 µM, the TGI [26] was greater than 100 µM and the TGI [27] was greater than 100 µM. For the same compound, the TGI [28] was greater than 100 µM, the TGI [29] was greater than 100 µM and the TGI [30] was greater than 100 µM. The TGI [31] was greater than 100 µM, the TGI [32] was greater than 100 µM and the TGI [33] was greater than 100 µM. For the same compound, the TGI [34] was greater than 100 µM, the TGI [35] was greater than 100 µM and the TGI [36] was greater than 100 µM. The TGI [37] was greater than 100 µM, the TGI [38] was greater than 100 µM and the TGI [39] was greater than 100 µM. It also gave a TGI [40] greater than 100 µM, a TGI [41] greater than 100 µM and a TGI [42] greater than 100 µM. For the same compound, the TGI [43] was greater than 100 µM, the TGI [44] was greater than 100 µM and the TGI [45] was greater than 100 µM. For the same compound, the TGI [46] was greater than 100 µM.
`CC(C)C1OC(=O)/C=C/C=C/C=C/C=C/C=C/CC(O)CC(O)CC(O)CC(O)CC(O)CC(O)CC(O)CC(O)/C=C/C1C` (stereo not given) showed a TGI [1] greater than 100 µM, a TGI [2] greater than 100 µM and a TGI [3] greater than 100 µM. The TGI [4] was greater than 100 µM, the TGI [47] was greater than 100 µM and the TGI [5] was greater than 100 µM. For the same compound, the TGI [6] was greater than 100 µM, the TGI [48] was greater than 100 µM and the TGI [7] was greater than 100 µM. For the same compound, the TGI [8] was greater than 100 µM, the TGI [9] was greater than 100 µM and the TGI [10] was greater than 100 µM. It also gave a TGI [11] greater than 100 µM, a TGI [49] greater than 100 µM and a TGI [12] greater than 100 µM. The TGI [13] was greater than 100 µM, the TGI [50] was greater than 100 µM and the TGI [51] was greater than 100 µM. The TGI [15] was greater than 100 µM, the TGI [16] was greater than 100 µM and the TGI [17] was greater than 100 µM. It also gave a TGI [18] greater than 100 µM, a TGI [52] greater than 100 µM and a TGI [19] greater than 100 µM. The TGI [20] was greater than 100 µM, the TGI [21] was greater than 100 µM and the TGI [22] was greater than 100 µM. For the same compound, the TGI [53] was greater than 100 µM, the TGI [23] was greater than 100 µM and the TGI [54] was greater than 100 µM. It also gave a TGI [55] greater than 100 µM, a TGI [24] greater than 100 µM and a TGI [25] greater than 100 µM. It also gave a TGI [26] greater than 100 µM, a TGI [27] greater than 100 µM and a TGI [56] greater than 100 µM. It also gave a TGI [28] greater than 100 µM, a TGI [57] greater than 100 µM and a TGI [29] greater than 100 µM. For the same compound, the TGI [30] was greater than 100 µM, the TGI [31] was greater than 100 µM and the TGI [32] was greater than 100 µM. It also gave a TGI [33] greater than 100 µM, a TGI [34] greater than 100 µM and a TGI [35] greater than 100 µM. It also gave a TGI [37] greater than 100 µM, a TGI [38] greater than 100 µM and a TGI [39] greater than 100 µM. It also gave a TGI [58] greater than 100 µM, a TGI [40] greater than 100 µM and a TGI [42] greater than 100 µM. For the same compound, the TGI [43] was greater than 100 µM, the TGI [44] was greater than 100 µM and the TGI [46] was greater than 100 µM.
For `CCOc1cc(NC(C)=O)ccc1C(=O)NN1C(=O)/C(=C/c2cc(OC)c(OC)c(OC)c2)N=C1c1ccccc1`, the TGI [1] was greater than 100 µM, the TGI [2] was greater than 100 µM and the TGI [3] was greater than 100 µM. For the same compound, the TGI [4] was greater than 100 µM, the TGI [47] was 69.2 µM and the TGI [5] was greater than 100 µM. The TGI [6] was greater than 100 µM, the TGI [48] was greater than 100 µM and the TGI [8] was greater than 100 µM. The TGI [9] was greater than 100 µM, the TGI [10] was greater than 100 µM and the TGI [11] was greater than 100 µM. It also gave a TGI [49] greater than 100 µM, a TGI [13] greater than 100 µM and a TGI [14] greater than 100 µM. It also gave a TGI [50] greater than 100 µM, a TGI [51] greater than 100 µM and a TGI [15] greater than 100 µM. The TGI [16] was 98.2 µM, the TGI [17] was greater than 100 µM and the TGI [18] was greater than 100 µM. For the same compound, the TGI [52] was greater than 100 µM, the TGI [19] was greater than 100 µM and the TGI [21] was greater than 100 µM. For the same compound, the TGI [22] was greater than 100 µM, the TGI [53] was greater than 100 µM and the TGI [23] was greater than 100 µM. The TGI [54] was greater than 100 µM, the TGI [55] was greater than 100 µM and the TGI [59] was greater than 100 µM. The TGI [24] was greater than 100 µM, the TGI [25] was greater than 100 µM and the TGI [26] was greater than 100 µM. The TGI [27] was greater than 100 µM, the TGI [56] was greater than 100 µM and the TGI [30] was greater than 100 µM. It also gave a TGI [31] greater than 100 µM, a TGI [32] greater than 100 µM and a TGI [34] greater than 100 µM. The TGI [35] was greater than 100 µM, the TGI [36] was greater than 100 µM and the TGI [37] was greater than 100 µM. For the same compound, the TGI [38] was greater than 100 µM, the TGI [58] was greater than 100 µM and the TGI [40] was greater than 100 µM. For the same compound, the TGI [44] was greater than 100 µM, the TGI [45] was greater than 100 µM and the TGI [46] was greater than 100 µM.
In the case of `Cc1cccc(NC(=S)N=Nc2c(O)[nH]c3ccccc23)c1`, the TGI [1] is reported as greater than 100 µM, the TGI [2] is reported as 98.1 µM and the TGI [3] is reported as greater than 100 µM. It also gave a TGI [4] greater than 100 µM, a TGI [5] greater than 100 µM and a TGI [6] greater than 100 µM. For the same compound, the TGI [48] was greater than 100 µM, the TGI [7] was 70.6 µM and the TGI [8] was greater than 100 µM. The TGI [9] was greater than 100 µM, the TGI [10] was greater than 100 µM and the TGI [11] was greater than 100 µM. The TGI [49] was greater than 100 µM, the TGI [12] was greater than 100 µM and the TGI [13] was greater than 100 µM. For the same compound, the TGI [14] was greater than 100 µM, the TGI [50] was greater than 100 µM and the TGI [51] was greater than 100 µM. For the same compound, the TGI [15] was greater than 100 µM, the TGI [16] was greater than 100 µM and the TGI [17] was greater than 100 µM. For the same compound, the TGI [18] was greater than 100 µM, the TGI [52] was greater than 100 µM and the TGI [19] was greater than 100 µM. The TGI [20] was greater than 100 µM, the TGI [21] was greater than 100 µM and the TGI [22] was greater than 100 µM. For the same compound, the TGI [53] was greater than 100 µM, the TGI [23] was greater than 100 µM and the TGI [54] was greater than 100 µM. The TGI [55] was greater than 100 µM, the TGI [59] was greater than 100 µM and the TGI [24] was 85.9 µM. The TGI [25] was greater than 100 µM, the TGI [26] was greater than 100 µM and the TGI [27] was greater than 100 µM. The TGI [56] was greater than 100 µM, the TGI [28] was greater than 100 µM and the TGI [57] was greater than 100 µM. The TGI [29] was greater than 100 µM, the TGI [30] was 58.7 µM and the TGI [31] was greater than 100 µM. It also gave a TGI [32] greater than 100 µM, a TGI [33] greater than 100 µM and a TGI [34] greater than 100 µM. For the same compound, the TGI [35] was greater than 100 µM, the TGI [36] was greater than 100 µM and the TGI [37] was greater than 100 µM. For the same compound, the TGI [38] was greater than 100 µM, the TGI [39] was greater than 100 µM and the TGI [58] was greater than 100 µM. It also gave a TGI [40] greater than 100 µM, a TGI [41] greater than 100 µM and a TGI [43] greater than 100 µM. For the same compound, the TGI [44] was greater than 100 µM, the TGI [45] was greater than 100 µM and the TGI [46] was greater than 100 µM.
